Laboratory results as given in ChEMBL document CHEMBL5137025, “Tuberculosis Drug Discovery: Challenges and New Horizons” (J Med Chem, 2022).
≈ marks a conversion by molar mass, not a printed value.

How the values were obtained:
[1] = test system: Mycobacterium tuberculosis; type: functional; conditions: H37Rv, time 6 day
[2] = test system: HepG2; experiment: Cytotoxicity against human HepG2 cells assessed as reduction in cell viability treated for 3 days by resazurin reduction microplate assay; type: functional; conditions: HepG2, 72 h, time 3 day
[3] = test system: Mycobacterium tuberculosis; type: functional, H37Rv; conditions: dose 100 mg/kg; route po; time 10 day
[4] = test system: Mycobacterium tuberculosis; experiment: Antibacterial activity against Mycobacterium tuberculosis in acute Mtb infection BALB/c mouse model assessed as reduction in log10 CFU treated for 6 days; type: functional; conditions: time 6 day
[5] = test system: Mycobacterium tuberculosis; type: functional, THP-1; conditions: H37Rv
[6] = test system: Mycobacterium tuberculosis; type: functional, THP-1; conditions: H37Rv; remark: listed apart in the source
[7] = test system: Mycobacterium tuberculosis; experiment: Antibacterial activity against Mycobacterium tuberculosis in acute Mtb infection 129sv dehydropeptidase-1 KO mouse model assessed as reduction in log10 CFU administered subcutaneously twice daily for 6 days; type: functional; conditions: route sc; time 6 day
[8] = test system: Mycobacterium tuberculosis; experiment: microbe, parasite or virus in culture; conditions: H37Rv
Description: Antibacterial activity against Mycobacterium tuberculosis H37Rv assessed as inhibition of bacterial growth

[9] = Half life in mouse; type: ADME, organism-based; conditions: in vivo
[10] = test system: Mycobacterium tuberculosis; type: functional; conditions: H37Rv, 336 h, time 14 day
[11] = test system: Mycobacterium tuberculosis; type: functional, H37Rv; conditions: dose 400 mg/kg; route sc; time 3 weeks
[12] = test system: Mycobacterium tuberculosis; experiment: Antibacterial activity against Mycobacterium tuberculosis in acute Mtb infection 129sv dehydropeptidase-1 KO mouse model assessed as reduction in log10 CFU administered twice daily for 6 days in presence of clavulanate; type: functional; conditions: time 6 day
[13] = test system: Mycobacterium tuberculosis; type: functional, H37Rv; conditions: dose 200 mg/kg; route po; time 8 weeks
[14] = Half life in Swiss-Webster mouse at 200 mg/kg, po via gavage measured after 4 hrs; type: ADME, organism-based; conditions: in vivo
[15] = test system: Mycobacterium tuberculosis; type: functional, H37Rv; conditions: dose 200 mg/kg; route po; time 2 weeks
[16] = in vitro; conditions: human, dermal fibroblasts
Description: Cytotoxicity against human dermal fibroblasts assessed as cell growth inhibition treated for 48 hrs by resazurin dye based assay

[17] = physchem; conditions: sodium phosphate buffer, pH 7.4
[18] = test system: Mycobacterium tuberculosis; type: functional; conditions: H37Rv, 336 h, time 14 day; remark: listed apart in the source
[19] = test system: Mycobacterium tuberculosis; type: functional, H37Rv; conditions: dose 25 mg/kg; route ig; time 3 weeks
[20] = Inhibition of Mycobacterium tuberculosis ASADH expressed in Escherichia coli BL21
[21] = test system: HepG2; experiment: Cytotoxicity against human HepG2 cells by MTT assay; type: functional
[22] = Cytotoxicity against African green monkey Vero cells by MTT assay; type: toxicity, cell-based; conditions: chlorocebus sabaeus
[23] = test system: Mycobacterium tuberculosis; type: functional; conditions: H37Rv, 336 h, time 14 day; remark: listed apart in the source
[24] = test system: Mycobacterium tuberculosis; experiment: Antibacterial activity against Mycobacterium tuberculosis in acute Mtb infection mouse model assessed as reduction in log10 CFU at 200 mg/kg for 3 weeks; type: functional
[25] = test system: Mycobacterium tuberculosis; type: functional; conditions: H37Rv, 336 h, time 14 day; remark: listed apart in the source
[26] = test system: Mycobacterium tuberculosis; experiment: Antibacterial activity against Mycobacterium tuberculosis in acute Mtb infection mouse model assessed as reduction in log10 CFU at 200 mg/kg for 3 weeks in presence of Rifampicin; type: functional
[27] = test system: Mycobacterium tuberculosis; experiment: Antibacterial activity against Mycobacterium tuberculosis in acute Mtb infection 129sv dehydropeptidase-1 KO mouse model assessed as reduction in log10 CFU administered orally twice daily for 6 days; type: functional; conditions: route po; time 6 day
[28] = test system: Mycobacterium tuberculosis; experiment: Antibacterial activity against Mycobacterium tuberculosis in chronic Mtb infection BALB/c mouse model assessed as reduction in log10 CFU in lungs at 100 mg/kg, po for 4 weeks; type: functional
[29] = Half life in BALB/c mouse at 100 mg/kg, po by LC/MS analysis; type: ADME, organism-based; conditions: in vivo
[30] = Solubility of the compound in PBS at pH 7.4 incubated for 24 hrs by LC-MS analysis; type: physicochemical
[31] = Metabolic stability in CD-1 mouse liver microsomes assessed as half life measured for 5 to 40 mins by LC-MS/MS analysis; type: ADME, Microsome; conditions: time 5-40 min
[32] = test system: Mycobacterium tuberculosis; type: functional, H37Rv; conditions: dose 10 mg/kg; route po; time 2 weeks
[33] = test system: Mycobacterium tuberculosis; experiment: Antibacterial activity against Mycobacterium tuberculosis infected in macrophage assessed as inhibition of bacterial growth; type: functional, organism-based

O=C(/C=C/c1nccs1)N1CCN(Cc2ccc3c(c2)OCO3)CC1 gave an MIC90 [1] of 0.84 µM (≈ 0.3 µg/mL), a CC50 [2] of 210 µM and an Activity [3] of 0.9 log10CFU.
With CO[C@H]1CCC[C@H]2C1=C(C(=O)[O-])N1C(=O)[C@H]([C@@H](C)O)[C@@H]21.[Na+] [SANFETRINEM SODIUM] the Activity [4] was 1.7 log10CFU, the MIC90 [5] was 5.6 µM and the MIC [6] was 5 µM. The Activity [7] was 1.7 log10CFU and the MIC [8] was 5 µM.
C[C@@H](O)[C@H]1C(=O)N2C(C(=O)O)=C(S[C@@H]3CN[C@H](C(=O)N(C)C)C3)[C@H](C)[C@H]12 [MEROPENEM] showed a half-life [9] of 27.6 min, an MIC90 [10] of 10 µM (≈ 3.83 µg/mL) and an Activity [11] of under 2 log10CFU. The Activity [12] was 1.7 log10CFU.
CNC(=O)c1c(-c2ccc(O)cc2)oc2ccc(O)c(CN3CCCCC3)c12 showed an Activity [13] of 1.9 log10CFU, a half-life [14] of 60 min and an Activity [15] of 0.9 log10CFU. It also gave a CC50 at 48 h [16] of over 100 µM, a solubility kinetic at 24 h [17] of 74 µM (≈ 28.2 µg/mL) and an MIC90 [8] of 0.13 µM (≈ 0.0495 µg/mL).
With CSC1=C(C(=O)[O-])N2C(=O)[C@H]([C@@H](C)O)[C@H]2[C@H]1C.[Na+] the Activity [11] was under 2 log10CFU and the MIC90 [18] was 0.9 µM.
O=C(Nc1nnc(C2CCCO2)o1)c1ccc([N+](=O)[O-])o1 (configuration not stated) gave an Activity [19] of 1.7 log10CFU, an IC50 [20] of 2 µM and a CC50 [21] of over 218 µM. The CC50 [22] was over 218 µM and the MIC [8] was 1.7 µM (≈ 0.5 µg/mL).
Compound C[C@@H](O)[C@H]1C(=O)N2C(C(=O)[O-])=C(SC3Cn4cnc[n+]4C3)[C@H](C)[C@H]12 (some centres not stated) [BIAPENEM] has a half-life [9] of 17.4 min, an MIC90 [23] of 7.1 µM (≈ 2.49 µg/mL) and an Activity [24] of 5.3 log10CFU. The MIC90 [25] was 1.7 µM (≈ 0.596 µg/mL) and the Activity [26] was 8.6 log10CFU.
With CO[C@H]1CCC[C@H]2C1=C(C(=O)OC(C)OC(=O)OC1CCCCC1)N1C(=O)[C@H]([C@@H](C)O)[C@@H]21 (some centres not stated) [SANFETRINEM CILEXETIL] the Activity [27] was 1.4 log10CFU.
For Nc1nc(N)c(N=O)c(OCC2CCCCC2)n1, the Activity [28] was 0.9 log10CFU and the half-life [29] was 60 min.
With O=C(NCCC(F)(F)F)c1ccc(-c2noc(C3CC3)n2)cc1 the solubility at 24 h [30] was 30 µM (≈ 9.76 µg/mL), the half-life [31] was 19 min and the Activity [32] was over 2 log10CFU. The EC50 [33] was 0.072 µM.
